Laboratory results published in patent publication US12281122B1, “PI3K inhibitors” (Cogent Biosciences, Inc., priority 2023, dated 2025).

How the values were obtained:
[1] = tested on: T47D (PI3Kα-H1047R) cell line; test: HTRF phospho-AKT(S473) cell assay in T47D cells; format: cell-based, human; settings: Homo sapiens; T47D (PI3Kα-H1047R) cells, HTRF phospho-AKT(S473), 2 hours compound incubation
Method: (§1) Compounds in the present disclosure were tested in a cell based HTRF phospho-AKT(S473) (CisBio/Revvity) assay in human breast cancer cell lines as a measurement of PIK3CA activity through measuring AKT, a downstream effector. The activity of mutant PI3Kα-H1047R and PI3Kα-Wild Type was measured in the T47D (PI3Kα-H1047R) and SKBR3 (PI3Kα-Wild Type) cell lines, respectively. T47D cells were plated at 20,000 cells per well in 50 μL in RPMI medium supplemented with 10% FBS and 0.2 units/mL insulin, in 384 well plates. SKBR3 cells were plated at 25,000 cells per well in 50 μL in McCoy's 5A medium supplemented with 10% FBS, in 384 well plates. Cells were plated using a Combi Multidrop reagent dispenser (ThermoFisher), and placed in 5% CO2, 37° C. incubator overnight to adhere.
(§2) The next day, cells were treated with either compounds or vehicle (DMSO) in a 12-fold dose response curve of 1:3 dilutions, with 5 μM and 10 μM as the top concentrations for the T47D and SKBR3 cell lines, respectively. Compound treatment was facilitated via the D300e digital dispenser (Tecan), with a maximum DMSO concentration of 0.5%. Following compound addition, cell plates were incubated for 2 hours in 5% CO2, 37° C. incubator. The SKBR3 cells were stimulated and treated with 70 ng/ml PDGF-BB ligand (ThermoFisher) for the remaining 15 minutes of the incubation. Following compound incubation, compound and media was aspirated from the cells and 25 μL of supplemented lysis buffer was added per well, and incubated for 45 minutes at room temperature, shaking at 600 rpm. Next, 16 μL of cell lysate was added to a 384 well low volume ProxyPlate (Perkin Elmer/Revvity) mixed with 4 μL of HTRF antibodies (1:1 Eu Cryptate+d2 Cryptate). HTRF supplemented lysis buffer and antibody reagents were used from the phosphor-AKT(S473) HTRF assay kit (CisBio/Revvity), following manufacturers protocol recommendations. Plates were sealed and incubated at 4° C. overnight.
(§3) The following day, plates were centrifuged for 1 minute at 1000 rpm, and read on a PHERAstar plate reader. IC50 values were calculated using Spotfire software.

[2] = tested on: SKBR3 (PI3Kα-Wild Type) cell line; test: HTRF phospho-AKT(S473) cell assay in SKBR3 cells; format: cell-based, human; settings: Homo sapiens, SK-BR-3; SKBR3 (PI3Kα-Wild Type) cells, HTRF phospho-AKT(S473), 2 hours compound incubation, PDGF-BB stimulated
Method: as §1, §2, §3

Compound Cc1cc([C@@H](C)Nc2ccc(Cl)nc2C(=O)NS(C)(=O)=O)c2nc(N3CCC[C@H](c4cc[nH]n4)C3)n(C)c(=O)c2c1 (relative stereo) [Compound 213, 3-(((R)-1-(2-((R*)-3-(1H-pyrazol-3-yl)piperidin-1-yl)-3,6-dimethyl-4-oxo-3,4-dihydroquinazolin-8-yl)ethyl)amino)-6-chloro-N-(methylsulfonyl) picolinamide] has an IC50 [1] of less than 250 nM and an IC50 [2] of 1000 to 5000 nM.

Cc1cc([C@@H](C)Nc2ccc(Cl)nc2C(=O)NS(C)(=O)=O)c2nc(N3CCC[C@@H](c4cc[nH]n4)C3)n(C)c(=O)c2c1 (relative stereo) [Compound 218, 3-(((R)-1-(2-((R*)-3-(1H-pyrazol-3-yl)piperidin-1-yl)-3,6-dimethyl-4-oxo-3,4-dihydroquinazolin-8-yl)ethyl)amino)-6-chloro-N-(methylsulfonyl) picolinamide] was tested, and the IC50 [1] was less than 250 nM and the IC50 [2] was 1000 to 5000 nM.

Work on Cc1cc([C@@H](C)Nc2ccc(Cl)nc2C(=O)NS(C)(=O)=O)c2nc(N3Cc4cn([C@@H](C)C(F)(F)F)nc4C3)n(C)c(=O)c2c1 (relative stereo) [Compound 222, 6-chloro-3-(((R)-1-(3,6-dimethyl-4-oxo-2-(2-((R*)-1,1,1-trifluoropropan-2-yl)-2,6-dihydropyrrolo[3,4-c]pyrazol-5(4H)-yl)-3,4-dihydroquinazolin-8-yl)ethyl)amino)-N-(methylsulfonyl) picolinamide] yielded an IC50 [1] of less than 250 nM and an IC50 [2] of 1000 to 5000 nM.

In the case of Cc1cc([C@@H](C)Nc2ccc(Cl)nc2C(=O)NS(C)(=O)=O)c2nc(N3Cc4cn([C@H](C)C(F)(F)F)nc4C3)n(C)c(=O)c2c1 (relative stereo) [Compound 224, 6-chloro-3-(((R)-1-(3,6-dimethyl-4-oxo-2-(2-((R*)-1,1,1-trifluoropropan-2-yl)-2,6-dihydropyrrolo[3,4-c]pyrazol-5(4H)-yl)-3,4-dihydroquinazolin-8-yl)ethyl)amino)-N-(methylsulfonyl) picolinamide], the IC50 [1] is reported as less than 250 nM and the IC50 [2] is reported as 1000 to 5000 nM.

Cc1cc([C@@H](C)Nc2ccc(Cl)nc2C(=O)NS(C)(=O)=O)c2nc(N3CCC[C@H](c4cnn(CC(F)(F)F)c4)C3)n(C)c(=O)c2c1 (relative stereo) [Compound 231, 6-chloro-3-(((R)-1-(3,6-dimethyl-4-oxo-2-((R*)-3-(1-(2,2,2-trifluoroethyl)-1H-pyrazol-4-yl)piperidin-1-yl)-3,4-dihydroquinazolin-8-yl)ethyl)amino)-N-(methylsulfonyl) picolinamide] was tested, and the IC50 [1] was less than 250 nM and the IC50 [2] was 1000 to 5000 nM.

Cc1cc([C@@H](C)Nc2ccc(Cl)nc2C(=O)NS(C)(=O)=O)c2nc(N3CC[C@@H](Oc4ccc(F)cc4)C3)n(C)c(=O)c2c1 (relative stereo) [Compound 236, 6-chloro-3-(((R)-1-(2-((R*)-3-(4-fluorophenoxy)pyrrolidin-1-yl)-3,6-dimethyl-4-oxo-3,4-dihydroquinazolin-8-yl)ethyl)amino)-N-(methylsulfonyl) picolinamide] showed an IC50 [1] of 250 to 500 nM and an IC50 [2] of 1000 to 5000 nM.

With Cc1cc([C@@H](C)Nc2ccc(Cl)nc2C(=O)NS(C)(=O)=O)c2nc(N3CCC[C@H](c4ccc(C)nc4)C3)n(C)c(=O)c2c1 (relative stereo) [Compound 237, 6-chloro-3-(((R)-1-(3,6-dimethyl-2-((R*)-3-(6-methylpyridin-3-yl)piperidin-1-yl)-4-oxo-3,4-dihydroquinazolin-8-yl)ethyl)amino)-N-(methylsulfonyl) picolinamide] the IC50 [1] was less than 250 nM and the IC50 [2] was 1000 to 5000 nM.

Cc1cc([C@@H](C)Nc2ccc(Cl)nc2C(=O)NS(C)(=O)=O)c2nc(N3CCC[C@@H](c4ccc(C)nc4)C3)n(C)c(=O)c2c1 (relative stereo) [Compound 238, 6-chloro-3-(((R)-1-(3,6-dimethyl-2-((R*)-3-(6-methylpyridin-3-yl)piperidin-1-yl)-4-oxo-3,4-dihydroquinazolin-8-yl)ethyl)amino)-N-(methylsulfonyl) picolinamide] was tested, and the IC50 [1] was less than 250 nM and the IC50 [2] was 1000 to 5000 nM.

Cc1cc([C@@H](C)Nc2ccc(Cl)nc2C(=O)NS(C)(=O)=O)c2nc(N3CCC[C@@H](c4cncc(C#N)c4)C3)n(C)c(=O)c2c1 (relative stereo) [Compound 263, 6-chloro-3-(((R)-1-(2-((R*)-3-(5-cyanopyridin-3-yl)piperidin-1-yl)-3,6-dimethyl-4-oxo-3,4-dihydroquinazolin-8-yl)ethyl)amino)-N-(methylsulfonyl) picolinamide] gave an IC50 [1] of less than 250 nM and an IC50 [2] of 1000 to 5000 nM.

Cc1cc([C@@H](C)Nc2ccc(Cl)nc2C(=O)NS(C)(=O)=O)c2nc(N3Cc4cnn([C@@H](C)C(F)(F)F)c4C3)n(C)c(=O)c2c1 (relative stereo) [Compound 284, 6-chloro-3-(((R)-1-(3,6-dimethyl-4-oxo-2-(1-((R*)-1,1,1-trifluoropropan-2-yl)-4,6-dihydropyrrolo[3,4-c]pyrazol-5(1H)-yl)-3,4-dihydroquinazolin-8-yl)ethyl)amino)-N-(methylsulfonyl) picolinamide] gave an IC50 [1] of less than 250 nM and an IC50 [2] of 1000 to 5000 nM.

Work on Cc1cc([C@@H](C)Nc2ccc(Cl)nc2C(=O)NS(C)(=O)=O)c2nc(N3CCC[C@H](c4conc4C)C3)n(C)c(=O)c2c1 (relative stereo) [Compound 306, 6-chloro-3-(((R)-1-(3,6-dimethyl-2-((R*)-3-(3-methylisoxazol-4-yl)piperidin-1-yl)-4-oxo-3,4-dihydroquinazolin-8-yl)ethyl)amino)-N-(methylsulfonyl) picolinamide] yielded an IC50 [1] of less than 250 nM and an IC50 [2] of 1000 to 5000 nM.

With Cc1cc([C@@H](C)Nc2ccc(Cl)nc2C(=O)NS(C)(=O)=O)c2nc(N3CCC[C@H](c4ccc(N)cn4)C3)n(C)c(=O)c2c1 (relative stereo) [Compound 307, 3-(((R)-1-(2-((R*)-3-(5-aminopyridin-2-yl)piperidin-1-yl)-3,6-dimethyl-4-oxo-3,4-dihydroquinazolin-8-yl)ethyl)amino)-6-chloro-N-(methylsulfonyl) picolinamide] the IC50 [1] was less than 250 nM and the IC50 [2] was no less than 5000 nM.

In the case of Cc1cc([C@@H](C)Nc2ccc(Cl)nc2C(=O)NS(C)(=O)=O)c2nc(N3CCO[C@H](c4cnn(C)c4)C3)n(C)c(=O)c2c1 (relative stereo) [Compound 313, 6-chloro-3-(((R)-1-(3,6-dimethyl-2-((R*)-2-(1-methyl-1H-pyrazol-4-yl)morpholino)-4-oxo-3,4-dihydroquinazolin-8-yl)ethyl)amino)-N-(methylsulfonyl) picolinamide], the IC50 [1] is reported as 250 to 500 nM and the IC50 [2] is reported as 1000 to 5000 nM.

For Cc1cc([C@@H](C)Nc2ccc(Cl)nc2C(=O)NS(C)(=O)=O)c2nc(N3CCO[C@@H](c4cnn(C)c4)C3)n(C)c(=O)c2c1 (relative stereo) [Compound 314, 6-chloro-3-(((R)-1-(3,6-dimethyl-2-((R*)-2-(1-methyl-1H-pyrazol-4-yl)morpholino)-4-oxo-3,4-dihydroquinazolin-8-yl)ethyl)amino)-N-(methylsulfonyl) picolinamide], the IC50 [1] was less than 250 nM and the IC50 [2] was no less than 5000 nM.

Cc1cc([C@@H](C)Nc2ccc(Cl)nc2C(=O)NS(C)(=O)=O)c2nc([C@@H]3CCCN(c4cc[nH]n4)C3)n(C)c(=O)c2c1 (relative stereo) [Compound 322, 3-(((R)-1-(2-((R*)-1-(1H-pyrazol-3-yl)piperidin-3-yl)-3,6-dimethyl-4-oxo-3,4-dihydroquinazolin-8-yl)ethyl)amino)-6-chloro-N-(methylsulfonyl) picolinamide] was tested, and the IC50 [1] was less than 250 nM and the IC50 [2] was 1000 to 5000 nM.

Work on Cc1cc([C@@H](C)Nc2ccc(Cl)nc2C(=O)NS(C)(=O)=O)c2nc(N3CC[C@H](c4ccn(C)n4)CC3(C)C)n(C)c(=O)c2c1 (relative stereo) [Compound 323, 6-chloro-3-(((R)-1-(2-((R*)-2,2-dimethyl-4-(1-methyl-1H-pyrazol-3-yl)piperidin-1-yl)-3,6-dimethyl-4-oxo-3,4-dihydroquinazolin-8-yl)ethyl)amino)-N-(methylsulfonyl) picolinamide] yielded an IC50 [1] of 250 to 500 nM and an IC50 [2] of no less than 5000 nM.

Compound Cc1cc([C@@H](C)Nc2ccc(Cl)nc2C(=O)NS(C)(=O)=O)c2nc(N3CC[C@@H](c4ccn(C)n4)CC3(C)C)n(C)c(=O)c2c1 (relative stereo) [Compound 324, 6-chloro-3-(((R)-1-(2-((R*)-2,2-dimethyl-4-(1-methyl-1H-pyrazol-3-yl)piperidin-1-yl)-3,6-dimethyl-4-oxo-3,4-dihydroquinazolin-8-yl)ethyl)amino)-N-(methylsulfonyl) picolinamide] has an IC50 [1] of less than 250 nM and an IC50 [2] of no less than 5000 nM.
